The record followed here is PMC7887271, “Fast acting allosteric phosphofructokinase inhibitors block trypanosome glycolysis and cure acute African trypanosomiasis in mice” (Nature Communications, 2021).

Data set [1] deals with T1, TbPFK (Trypanosoma brucei brucei, UniProt O15648).
T1 construct: made in house; host or cells: Escherichia coli C41 (pET28a, codon optimised gene)
T1 sequence (O15648 1-487): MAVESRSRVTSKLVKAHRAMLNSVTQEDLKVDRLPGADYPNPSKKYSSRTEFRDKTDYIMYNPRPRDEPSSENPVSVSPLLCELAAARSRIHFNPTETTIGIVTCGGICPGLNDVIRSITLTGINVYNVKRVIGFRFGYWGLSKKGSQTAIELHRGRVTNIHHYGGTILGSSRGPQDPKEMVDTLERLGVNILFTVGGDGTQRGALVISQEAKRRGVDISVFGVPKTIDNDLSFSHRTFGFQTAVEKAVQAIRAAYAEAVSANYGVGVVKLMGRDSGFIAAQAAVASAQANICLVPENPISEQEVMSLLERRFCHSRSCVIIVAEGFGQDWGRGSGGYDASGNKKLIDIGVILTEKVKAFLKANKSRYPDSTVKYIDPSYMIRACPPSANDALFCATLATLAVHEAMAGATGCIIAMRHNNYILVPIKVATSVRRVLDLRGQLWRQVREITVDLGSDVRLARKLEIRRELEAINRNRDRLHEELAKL
Kind of data set: PYK/LDH linked enzyme assay to determine inhibitor mode of action. The class given is biochemical. The procedure:
TbPFK inhibition was studied using an enzyme assay, in which production of ADP by TbPFK was coupled to the reactions of pyruvate kinase and lactate dehydrogenase: the conversion of pyruvate to lactate and NADH to NAD^+, is monitored by reduction of UV absorbance at 340 nm.
Parasite enzyme kinetic data were measured using N-terminally His6-tagged TbPFK expressed in Escherichia coli C41 cells, using a codon optimised gene inserted in a pET28a vector (Supplementary Methods 1). Recombinant human PFKs were expressed in PFK-deficient Saccharomyces cerevisiae. PFK enzyme inhibition was measured using an ADP-Glo^TM assay (Promega) in a 96-well plate format (Supplementary Methods 2.1), using a Spectramax© M5 Multimode Plate Reader to measure luminescence values which were converted to ADP concentrations. IC50 values were determined using a sigmoidal curve fitting algorithm in Kaleidagraph 4 (Supplementary Fig. 1). Mode of action studies were carried out using a linked enzyme assay coupling the forward reaction of TbPFK to the M1 isoform of human pyruvate kinase followed by lactate dehydrogenase. The change in UV absorbance at 340 nm resulting from the conversion of NADH to NAD^+ was measured at 25 °C in ‘kinetic mode’ on a Spectramax© M5 Multimode plate reader. […] An alternative linked enzyme assay was developed to control for the potential inhibitory activity of ATP on human PFK (Supplementary Methods 2.3).
The mechanism of TbPFK inhibition was studied using a coupled enzyme assay in which production of ADP by TbPFK was coupled to the reaction of human M1 isoform pyruvate kinase (hPYK), which converts ADP and phosphoenolpyruvate (PEP) to ATP and pyruvate. The reaction is further coupled to lactate dehydrogenase (LDH), which converts pyruvate and NADH to lactate and NAD^+, respectively. NADH conversion was monitored by measuring changes in NADH absorbance.
A 2.5x ‘assay mix’ was made containing 4.8 mM PEP, 1.2 mM NADH , 20 U/ml PYK, 33 U/ml LDH, 0 to 3mM ATP in assay buffer (10 mM MgCl2, 100 mM KCl, 50 mM TEA, 10% glycerol, 0.005% Tween-20, pH 7.4). For measuring activity 40 µl of assay mix was plated in a clear, non-binding 96 well plate (Greiner Bio-One cat. no. 655901) with 4-10 µl of the PFK sample (typically a 0.1 mg/ml stock) to be tested and 40 – 46 µl of assay buffer. The reaction was started upon addition of 10 µl of up to 6 mM F6P (0.6 mM final concentration). Absorbance at 340 nm was read at 20 second intervals for 10 minutes at 25 °C in ‘kinetic mode’ on a Spectramax© M5 Multimode plate reader. The gradient of the linear section of raw plots of NADH absorbance over time were used to obtain initial velocities.

The nature of data set [2]: Brain and plasma concentrations in mice after oral dose. The class given is in vivo. The following applies: female, CD-1, mouse, single oral dose of 50 mg kg^−1, 2 h. The procedure:
These values for concentrations of free compound in the brain give a Kp,uu value of 0.6 (defined as the ratio of unbound compound in brain to unbound compound in plasma). This ratio provides an estimate of the amount of free drug in the brain interstitial fluid as being just over half the free concentration in the blood.
Blood samples were collected from terminal cardiac puncture at 0.08 (IV only), 0.25, 0.5, 1 (PO only), 2, 4, 8 and 24 hour time points. The whole blood was centrifuged to obtain plasma. Brains were also collected following cardiac perfusion from both sets of animals at 2 hours. Analysis of the biological samples was carried out by the company Selcia. Plasma proteins were precipitated by addition of PBS (1 volume) followed by 3 volumes of acetonitrile containing internal standard (verapamil). Following filtration through a protein precipitation plate the eluent was dried under nitrogen and re-suspended in mobile phase prior to analysis. Individual brains were homogenised in PBS and diluted to 10% w/v and divided into aliquots consisting of brain homogenate (1 volume, 0.3 ml) and 3 volumes (0.9 ml) of acetonitrile containing internal standard. Samples were centrifuged and supernatants removed and taken through a protein precipitation plate alongside an appropriate standard. […] Eluents were analysed by LC-MS/MS using a Phenomenex Gemini NX column (C18,30 x 2.1 mm, 3 micron). […]

Entries after “also recorded” stand apart in the source; their conditions may differ. Like-named read-outs stand apart in the source and are kept apart here.

`CN(C)CCn1ccc2c(ccn2Cc2ccc(Cl)c(Cl)c2)c1=O` [CTCB-405, 1-[(3,4-Dichlorophenyl)methyl]-5-[2-(dimethylamino)ethyl] pyrrolo[3,2-c]pyridin-4-one]: the “mode of inhibition with respect to ATP and F6P” value in data set [1] was “not competitive with either ATP or F6P; also recorded: not competitive with either substrate”. The “Vmax, Michaelis Menten best fit versus ATP” value was found to be 36.5 µmol/min/mg in data set [1] (CTCB-405 at 0.5 x IC50), 33.8 µmol/min/mg in data set [1] (CTCB-405 at 1x IC50) and 26.6 µmol/min/mg in data set [1] (CTCB-405 at 2 x IC50). The figures for the “Vmax, Michaelis Menten best fit versus F6P” value in data set [1] (CTCB-405 at 0.5 x IC50), in data set [1] (CTCB-405 at 1x IC50) and in data set [1] (CTCB-405 at 2 x IC50) were 38.7 µmol/min/mg, 33.6 µmol/min/mg and 34.0 µmol/min/mg, respectively. The concentration at 2 h in data set [2] (brain homogenate, read-out: mean concentration in brain homogenate) was found to be 1510 ng/g; in data set [2] (plasma, read-out: mean plasma concentration), 366 ng/mL.
